The values below come from PubChem BioAssay (NCI).

Each structure is given as a SMILES string. Values joined by “and” are separate entries in the source; they are usually repeats but may differ in a detail not shown here. Identical values can stand only once.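 Protocol summary: plate cells (96-well), add compound at 5 concentrations, incubate 48 h, interpolate endpoints linearly. Here, GI50 denotes the concentration required for 50% inhibition of growth. Definition used: TGI = concentration required for complete inhibition of growth.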

Some test systems named below: SK-MEL-28 melanoma; HS 578T breast; SR leukemia; SK-MEL-2 melanoma; EKVX NSCLC; OVCAR-8 ovarian; KM12 colon; UO-31 renal; SF-268 CNS; HT29 colon.
Common to all, as to assay: NCI-60 cell line screen, 48 h

Consider `COc1cc2c(cc1OC)C13CCN4C=C5CCOC6CC(=O)N2C1C6C5CC43` (stereo unspecified), for which the TGI in the assay with SK-MEL-28 melanoma, in the assay on HS 578T breast, in the assay with SR leukemia, with SK-MEL-2 melanoma, in the assay on EKVX NSCLC and in the assay with OVCAR-8 ovarian was more than 100000 nM throughout. In addition, the TGI in the assay on KM12 colon, in the assay with UO-31 renal, in the assay on SF-268 CNS and in the assay on HT29 colon was more than 100000 nM in each case.

For `CN(C)CCCOc1ccccc1NC1=C(Cl)C(=O)C(Nc2ccccc2OCCCN(C)C)=C(Cl)C1=O`, the GI50 was 1720 nM in the assay on SK-MEL-28 melanoma; 1830 nM in the assay on HS 578T breast; 837 nM in the assay on SR leukemia; 1830 nM in the assay on SK-MEL-2 melanoma; 693 nM with EKVX NSCLC; 301 nM with OVCAR-8 ovarian. Also, the GI50 in the assay with KM12 colon was 762 nM; with UO-31 renal it was 1210 nM; with SF-268 CNS, 1030 nM; with HT29 colon, 253 nM. Besides, the TGI with SK-MEL-28 melanoma is 3130 nM; in the assay on HS 578T breast, 5460 nM; in the assay with SR leukemia, 5470 nM; with SK-MEL-2 melanoma it was 3580 nM; in the assay with EKVX NSCLC it was 1970 nM; in the assay on OVCAR-8 ovarian, 900 nM. The TGI was 2200 nM in the assay on KM12 colon, 2460 nM with UO-31 renal, 2610 nM in the assay on SF-268 CNS and 584 nM in the assay with HT29 colon.

As to `Nc1ncnc2c1ncn2C1OC(COP(=O)(O)CP(=O)(O)O)C(O)C1O` (stereo unspecified), the TGI with SK-MEL-28 melanoma, in the assay with HS 578T breast, with SR leukemia, in the assay on SK-MEL-2 melanoma, in the assay on EKVX NSCLC and in the assay on OVCAR-8 ovarian was more than 100000 nM in each case. In addition, the TGI with KM12 colon, in the assay on UO-31 renal, with SF-268 CNS and with HT29 colon was more than 100000 nM throughout.

In the case of `CO[C@H](C(=O)[C@@H](O)[C@@H](C)O)[C@@H]1Cc2cc3cc(O[C@H]4C[C@@H](O[C@H]5C[C@@H](O)[C@H](O)C(C)O5)[C@H](O)C(C)O4)c(C)c(O)c3c(O)c2C(=O)[C@H]1O[C@H]1C[C@@H](O[C@H]2C[C@@H](O[C@H]3C[C@@H](OC)[C@H](O)C(C)O3)[C@@H](O)C(C)O2)C(O)(O)C(C)O1` (stereo partly specified), the GI50 was 43.9 nM with SK-MEL-28 melanoma; 118 nM in the assay on HS 578T breast; 93.2 nM with SR leukemia; 55.1 nM in the assay with SK-MEL-2 melanoma; 318 nM with EKVX NSCLC; 225 nM in the assay on OVCAR-8 ovarian. Also, the GI50 in the assay with KM12 colon was 102 nM; with UO-31 renal it was 209 nM; in the assay on SF-268 CNS, 128 nM; with HT29 colon, 212 nM. For the same compound, the TGI in the assay on SK-MEL-28 melanoma is 1110 nM; in the assay on HS 578T breast, more than 7660 nM; in the assay on SR leukemia, more than 25000 nM; in the assay with SK-MEL-2 melanoma, 592 nM; in the assay on EKVX NSCLC it was more than 25000 nM; in the assay with OVCAR-8 ovarian it was more than 25000 nM. Besides, the TGI with KM12 colon is more than 25000 nM; with UO-31 renal it was 2840 nM; in the assay on SF-268 CNS, more than 25000 nM; in the assay with HT29 colon, 5010 nM.

On to `Cc1c2cc[nH]c(=O)c2c(C)c2c1[nH]c1cc(OCCN3CCN(C)CC3)ccc12`, for which the GI50 in the assay with SK-MEL-28 melanoma was 1500 nM; with HS 578T breast, 2010 nM; with SR leukemia, 314 nM; in the assay with SK-MEL-2 melanoma, 1520 nM; with EKVX NSCLC, 1110 nM; with OVCAR-8 ovarian it was 457 nM. In addition, the GI50 with KM12 colon is 1190 nM; in the assay with UO-31 renal it was 1060 nM; in the assay with SF-268 CNS, 740 nM; in the assay on HT29 colon it was 432 nM. For the same compound, the TGI in the assay with SK-MEL-28 melanoma stood at 2980 nM; in the assay on HS 578T breast it was 9230 nM; in the assay with SR leukemia, 12000 nM; with SK-MEL-2 melanoma, 3430 nM; with EKVX NSCLC it was 10300 nM; with OVCAR-8 ovarian, 6080 nM. Moreover, the TGI in the assay with KM12 colon worked out at 5610 nM; with UO-31 renal, 3090 nM; in the assay on SF-268 CNS it was 7970 nM; in the assay with HT29 colon, 2030 nM.

As for `CCSc1nnc2c(-c3ccccc3)n[nH]c2n1`, the TGI in the assay on SK-MEL-28 melanoma, with HS 578T breast, with SR leukemia, in the assay with SK-MEL-2 melanoma, in the assay with EKVX NSCLC and in the assay with OVCAR-8 ovarian was more than 100000 nM throughout. The TGI in the assay with KM12 colon, in the assay with UO-31 renal, in the assay with SF-268 CNS and with HT29 colon was more than 100000 nM throughout.

For the compound `O=[As](O)(O)c1ccc(NCc2ccccc2)cc1`, the TGI in the assay on SK-MEL-28 melanoma, in the assay on HS 578T breast, in the assay on SR leukemia, with SK-MEL-2 melanoma, in the assay with EKVX NSCLC and with OVCAR-8 ovarian was more than 100000 nM each time. For the same compound, the TGI with KM12 colon, in the assay with UO-31 renal, with SF-268 CNS and with HT29 colon was more than 100000 nM throughout.

Take `CN1CCc2cc3c(cc2C1O)OCO3` (stereo unspecified): the TGI was 22300 nM and > 100000 nM with SK-MEL-28 melanoma; 82300 nM and > 100000 nM in the assay on HS 578T breast; more than 100000 nM in the assay on SR leukemia; 13000 nM and > 100000 nM in the assay with SK-MEL-2 melanoma; 36800 nM and > 100000 nM with EKVX NSCLC; 51600 nM and > 100000 nM in the assay with OVCAR-8 ovarian. Moreover, the TGI in the assay on KM12 colon was 22500 nM and > 100000 nM; with UO-31 renal it was 37400 nM and > 100000 nM; with SF-268 CNS it was 30800 nM and > 100000 nM; in the assay on HT29 colon, 47100 nM and > 100000 nM. Moreover, the GI50 in the assay with EKVX NSCLC is 17800 nM and > 100000 nM; with OVCAR-8 ovarian it was 21600 nM and > 100000 nM; in the assay on UO-31 renal, 17400 nM and > 100000 nM; with HT29 colon, 21400 nM and > 100000 nM.

`Cc1ccc(C(=O)N(CCCN)[C@@H](c2nc3cc(Cl)ccc3c(=O)n2Cc2ccccc2)C(C)C)cc1`: the GI50 is 1110 nM and 1150 nM in the assay with SK-MEL-28 melanoma; less than 10 nM with HS 578T breast; less than 10 nM in the assay with SR leukemia; less than 10 nM in the assay with SK-MEL-2 melanoma; less than 10 nM with EKVX NSCLC; less than 10 nM in the assay on OVCAR-8 ovarian. Also, the GI50 in the assay on KM12 colon was less than 10 nM; in the assay with UO-31 renal it was 1120 nM and 1020 nM; with HT29 colon, less than 10 nM. Besides, the TGI with SK-MEL-28 melanoma is 2500 nM and 2420 nM; in the assay on SR leukemia, 1630 nM and 1440 nM; in the assay on EKVX NSCLC, 2220 nM and 1640 nM; in the assay with OVCAR-8 ovarian it was 1520 nM and 2110 nM; with KM12 colon it was 1290 nM and 1440 nM; with UO-31 renal it was 2580 nM and 2270 nM. The TGI in the assay on SF-268 CNS was 1970 nM and 2350 nM; in the assay with HT29 colon it was 1030 nM and 1490 nM.
